Source: US10781204B2, “TYK2 inhibitors and uses thereof” (Nimbus Lakshmi, Inc., priority 2015, dated 2020)

How the values were obtained:
TYK2 = TYK2 (Homo sapiens (Human), UniProt P29597); experiment: Tyk2 radioactive kinase assay; type: biochemical; conditions: ATP 10 μM
In short: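 Recombinant human TYK2 (Invitrogen) was mixed with 20 μM peptide substrate in a buffer of 20 mM Hepes pH 7.5, 10 mM MgCl2, 1 mM EGTA, 0.02% Brij35, 0.02 mg/mL BSA, 0.1 mM […], 2 mM DTT and 1% DMSO, and compounds in DMSO were added. Adding ^33P-ATP (10 μM ATP) started the reaction, which ran 120 min at room temperature. Mixtures were then spotted onto P81 ion-exchange paper, washed thoroughly in 0.75% phosphoric acid, and counted for radioactivity.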

[1] = system: JAK2-pSTAT5 (GM-CSF induced pSTAT5); experiment: GM-CSF induced pSTAT5 in human PBMC; type: cell-based; conditions: Homo sapiens, PBMC, 20 min, 5 ng/mL GM-CSF
In short: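 Thawed human PBMC, 200,000 per well in serum-containing medium, were preincubated 1 hr at 37 C with compound in 0.1% DMSO. GM-CSF at 5 ng/mL final was added for 20 minutes, then pSTAT5 and total STAT5 in lysates were measured by MSD immunoassay.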

[2] = system: Tyk2-pSTAT4 (IL-12 induced pSTAT4); experiment: IL-12 induced pSTAT4 in human PBMC; type: cell-based; conditions: Homo sapiens, PBMC, 0.5 h, 1.7 ng/mL IL-12, 30 minutes
In short: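 Thawed human PBMC (200,000 cells/well, serum-containing medium) preincubated with compound 1 hr at 37 C, 0.1% DMSO final. Stimulated with 1.7 ng/mL IL-12 (final) for 30 minutes; pSTAT4 and total STAT4 in lysates measured by MSD immunoassay.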

JAK2 = JAK2 (Homo sapiens (Human), UniProt O60674); experiment: JAK2 radioactive kinase assay; type: biochemical; conditions: ATP 10 μM
In short: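 Radiometric assay in Hepes pH 7.5, MgCl2, EGTA, Brij35, BSA, DTT, 1% DMSO, with 10 μM [33P]ATP, 120 min at room temp; P81 paper capture and counting. […]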

JAK2, sequence (O60674 whole entry): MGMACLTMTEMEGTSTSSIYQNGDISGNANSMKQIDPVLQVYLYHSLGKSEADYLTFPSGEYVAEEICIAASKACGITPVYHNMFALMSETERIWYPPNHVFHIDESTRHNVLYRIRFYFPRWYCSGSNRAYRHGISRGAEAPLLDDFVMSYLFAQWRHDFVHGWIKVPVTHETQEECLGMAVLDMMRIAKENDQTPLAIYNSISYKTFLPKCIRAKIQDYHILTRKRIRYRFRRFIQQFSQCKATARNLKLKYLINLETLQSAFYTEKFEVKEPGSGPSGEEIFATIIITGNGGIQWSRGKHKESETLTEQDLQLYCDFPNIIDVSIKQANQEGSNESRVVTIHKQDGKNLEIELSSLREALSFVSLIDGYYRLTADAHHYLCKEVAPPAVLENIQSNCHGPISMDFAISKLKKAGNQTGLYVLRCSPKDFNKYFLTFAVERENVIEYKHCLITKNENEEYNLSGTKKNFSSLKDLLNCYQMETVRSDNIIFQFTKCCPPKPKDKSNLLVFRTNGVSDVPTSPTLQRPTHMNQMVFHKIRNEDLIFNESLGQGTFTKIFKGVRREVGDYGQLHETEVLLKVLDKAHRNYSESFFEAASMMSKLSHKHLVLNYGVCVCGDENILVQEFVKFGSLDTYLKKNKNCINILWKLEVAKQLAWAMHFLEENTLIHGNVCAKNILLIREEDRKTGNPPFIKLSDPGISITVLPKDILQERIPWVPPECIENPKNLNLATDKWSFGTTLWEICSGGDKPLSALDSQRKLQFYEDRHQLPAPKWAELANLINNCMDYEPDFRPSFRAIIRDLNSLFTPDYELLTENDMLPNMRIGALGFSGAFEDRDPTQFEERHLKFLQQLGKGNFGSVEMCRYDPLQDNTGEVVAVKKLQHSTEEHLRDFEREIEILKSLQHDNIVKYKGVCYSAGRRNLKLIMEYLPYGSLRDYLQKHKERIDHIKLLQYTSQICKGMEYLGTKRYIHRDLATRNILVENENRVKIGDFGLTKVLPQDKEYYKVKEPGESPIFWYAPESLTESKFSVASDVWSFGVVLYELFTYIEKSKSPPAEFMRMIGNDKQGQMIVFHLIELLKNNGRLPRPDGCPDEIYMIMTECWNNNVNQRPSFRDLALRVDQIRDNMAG
TYK2, sequence (P29597 whole entry): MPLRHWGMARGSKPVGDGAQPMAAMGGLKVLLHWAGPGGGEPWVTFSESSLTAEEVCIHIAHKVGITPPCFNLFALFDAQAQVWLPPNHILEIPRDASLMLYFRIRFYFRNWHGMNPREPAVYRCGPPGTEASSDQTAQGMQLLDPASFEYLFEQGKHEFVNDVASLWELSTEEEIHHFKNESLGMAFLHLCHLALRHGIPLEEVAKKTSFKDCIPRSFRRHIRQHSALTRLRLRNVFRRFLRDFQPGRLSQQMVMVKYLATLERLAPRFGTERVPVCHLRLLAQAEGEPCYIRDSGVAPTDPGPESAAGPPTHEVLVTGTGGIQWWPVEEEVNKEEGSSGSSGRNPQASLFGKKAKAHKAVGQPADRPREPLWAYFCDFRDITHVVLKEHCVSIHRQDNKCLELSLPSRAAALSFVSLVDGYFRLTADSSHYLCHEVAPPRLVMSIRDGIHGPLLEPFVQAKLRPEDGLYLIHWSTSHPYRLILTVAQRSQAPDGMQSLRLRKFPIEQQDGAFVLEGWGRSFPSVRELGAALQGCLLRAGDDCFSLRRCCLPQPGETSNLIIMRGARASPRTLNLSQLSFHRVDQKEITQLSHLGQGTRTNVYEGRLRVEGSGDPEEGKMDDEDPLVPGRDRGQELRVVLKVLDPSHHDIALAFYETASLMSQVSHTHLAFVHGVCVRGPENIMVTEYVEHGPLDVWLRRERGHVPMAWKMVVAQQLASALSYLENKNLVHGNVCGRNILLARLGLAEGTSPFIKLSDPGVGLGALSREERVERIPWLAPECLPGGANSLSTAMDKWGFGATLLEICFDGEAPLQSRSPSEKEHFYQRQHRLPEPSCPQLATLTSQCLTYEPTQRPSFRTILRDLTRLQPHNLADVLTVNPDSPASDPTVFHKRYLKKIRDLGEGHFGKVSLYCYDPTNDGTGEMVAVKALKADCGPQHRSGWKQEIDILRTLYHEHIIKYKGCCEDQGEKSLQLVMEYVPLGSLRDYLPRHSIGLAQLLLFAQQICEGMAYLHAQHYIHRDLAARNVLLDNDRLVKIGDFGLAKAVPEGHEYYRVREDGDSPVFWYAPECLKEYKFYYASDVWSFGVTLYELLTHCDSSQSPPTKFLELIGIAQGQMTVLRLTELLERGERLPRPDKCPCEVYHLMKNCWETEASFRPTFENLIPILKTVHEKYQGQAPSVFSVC

Compound | Ki (TYK2) [nM] | EC50 [1] [nM] | EC50 [2] [nM] | Ki (JAK2) [nM]
CC(=O)NC1CCCN(c2ccn(-c3cc(-c4c(F)cccc4C#N)nc4c3C(=O)NC4)n2)C1 (stereo not shown) [I-123, N-(1-(1-(2-(2-cyano-6-fluorophenyl)-5-oxo-6,7-dihydro-5H-pyrrolo[3,4-b]pyridin-4-yl)-1H-pyrazol-3-yl)piperidin-3-yl)acetamide] | 0.1 to 10 | > 2000 | 100 to 2000 | 0.1 to 10
CN1CCO[C@@H]2CN(c3ccn(-c4cc(-c5c(F)cccc5C#N)nc5c4C(=O)NC5)n3)C[C@@H]21 [I-225, 3-fluoro-2-(4-(3-((4aS,7aR)-4-methylhexahydropyrrolo[3,4-b][1,4]oxazin-6 (2H)-yl)-1H-pyrazol-1-yl)-5-oxo-6,7-dihydro-5H-pyrrolo[3,4-b]pyridin-2-yl)benzonitrile] | 0.1 to 10 | 100 to 2000 | 100 to 2000 | 0.1 to 10
N#Cc1cccc(F)c1-c1cc(-n2ccc(N3CCC[C@H](CO)C3)n2)c2c(n1)CNC2=O [I-98, (S)-3-fluoro-2-(4-(3-(3-(hydroxymethyl)piperidin-1-yl)-1H-pyrazol-1-yl)-5-oxo-6,7-dihydro-5H-pyrrolo[3,4-b]pyridin-2-yl)benzonitrile] | 0.1 to 10 | 100 to 2000 | 30 to 100 | 10 to 100
N#Cc1cccc(F)c1-c1cc(-n2ccc(N3CCNC(=O)CC3)n2)c2c(n1)CNC2=O [I-141, 3-fluoro-2-(5-oxo-4-(3-(5-oxo-1,4-diazepan-1-yl)-1H-pyrazol-1-yl)-6,7-dihydro-5H-pyrrolo[3,4-b]pyridin-2-yl)benzonitrile] | 0.009 to 0.1 | 100 to 2000 | 100 to 2000 | 0.1 to 10
CS(=O)(=O)N[C@H]1CCN(c2ccn(-c3cc(-c4c(F)cccc4C#N)nc4c3C(=O)NC4)n2)C1 [I-135, (S)-N-(1-(1-(2-(2-cyano-6-fluorophenyl)-5-oxo-6,7-dihydro-5H-pyrrolo[3,4-b]pyridin-4-yl)-1H-pyrazol-3-yl)pyrrolidin-3-yl)methanesulfonamide] | 0.1 to 10 | > 2000 | 100 to 2000 | 0.1 to 10
N#Cc1cccc(F)c1-c1cc(-n2ccc(N3CC[C@](O)(C(=O)N4CCCC4)C3)n2)c2c(n1)CNC2=O [I-198, (R)-3-fluoro-2-(4-(3-(3-hydroxy-3-(pyrrolidine-1-carbonyl)-pyrrolidin-1-yl)-1H-pyrazol-1-yl)-5-oxo-6,7-dihydro-5H-pyrrolo[3,4-b]pyridin-2-yl)benzonitrile] | 0.1 to 10 | > 2000 | 100 to 2000 | 10 to 100
N#Cc1cccc(F)c1-c1cc(-n2ccc(N3CCC[C@H](N4CCOCC4)C3)n2)c2c(n1)CNC2=O [I-157, (S)-3-fluoro-2-(4-(3-(3-morpholinopiperidin-1-yl)-1H-pyrazol-1-yl)-5-oxo-6,7-dihydro-5H-pyrrolo[3,4-b]pyridin-2-yl)benzonitrile] | 0.1 to 10 | > 2000 | 100 to 2000 | 10 to 100
